From patent US20110152166A1, “METHOD OF MODULATION OF PROTEIN PHOSPHORYLATION-DEPENDENT CONFORMATIONAL TRANSITIONS WITH LOW MOLECULAR WEIGHT COMPOUNDS” (priority 2006, published 2011)
Square brackets hold non-standard residues; d marks the D form. Ends that are not written are not given here. pS = N[C@@H](COP(=O)(O)O)C(=O)O

How the values were obtained:
Assay type in all cases: biochemical
GST-PDK1 [Ile119Ala] = target: T1, GST-PDK1 [Ile119Ala] (Homo sapiens, UniProt O15530, I119A); assay: PDK1 activity assay with T308tide; conditions: for AC50 / Max. activity: GST-PDK1 [Ile119Ala]
T1 construct: different protein constructs, comprising the full length protein or the catalytic domain alone; made in house; host or cells: HEK293 cells (pEBG-2T-PDK1 mutant)
T1 sequence (O15530 1-556 I119A): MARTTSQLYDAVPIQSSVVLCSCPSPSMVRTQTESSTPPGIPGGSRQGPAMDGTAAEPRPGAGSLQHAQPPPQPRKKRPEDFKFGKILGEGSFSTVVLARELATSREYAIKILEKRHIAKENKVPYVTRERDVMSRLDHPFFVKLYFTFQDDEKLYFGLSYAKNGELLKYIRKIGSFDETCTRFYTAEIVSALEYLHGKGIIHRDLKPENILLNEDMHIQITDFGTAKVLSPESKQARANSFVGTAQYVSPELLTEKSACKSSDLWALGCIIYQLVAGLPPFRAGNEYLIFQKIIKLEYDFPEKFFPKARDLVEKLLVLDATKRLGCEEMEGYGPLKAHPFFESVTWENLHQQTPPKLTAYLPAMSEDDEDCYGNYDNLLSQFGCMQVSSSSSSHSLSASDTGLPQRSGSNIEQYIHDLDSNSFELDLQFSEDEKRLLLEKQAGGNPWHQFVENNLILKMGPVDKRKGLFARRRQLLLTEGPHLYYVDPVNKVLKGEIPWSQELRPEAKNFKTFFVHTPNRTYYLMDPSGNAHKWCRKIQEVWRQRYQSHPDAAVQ

PKBa[Ser473Asp] = target: T2, PKBa[Ser473Asp] (Homo sapiens, UniProt P31749, S473D); assay: AGC kinase panel activity assay (Crosstide)
T2 construct: made in house; host or cells: HEK293
T2 sequence (P31749 whole entry S473D): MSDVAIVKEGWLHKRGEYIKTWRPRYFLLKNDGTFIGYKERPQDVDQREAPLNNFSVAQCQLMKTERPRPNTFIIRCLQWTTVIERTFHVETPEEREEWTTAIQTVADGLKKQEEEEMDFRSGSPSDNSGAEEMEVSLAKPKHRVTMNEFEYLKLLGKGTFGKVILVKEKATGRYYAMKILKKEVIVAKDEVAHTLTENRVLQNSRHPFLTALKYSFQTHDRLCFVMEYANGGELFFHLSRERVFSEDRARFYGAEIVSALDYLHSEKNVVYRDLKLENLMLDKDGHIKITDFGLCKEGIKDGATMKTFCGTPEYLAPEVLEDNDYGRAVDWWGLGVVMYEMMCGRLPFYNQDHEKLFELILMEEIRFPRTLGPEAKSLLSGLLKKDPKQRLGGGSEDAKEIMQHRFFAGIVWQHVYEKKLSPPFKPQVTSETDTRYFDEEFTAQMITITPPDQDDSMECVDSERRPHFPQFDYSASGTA
Experimental: (§1) Protein kinase activity tests were performed essentially as previously described (Balendran et al., 2000; Biondi et al., 2000; Biondi et al., 2001). Substrates used were either MBP (for PKCζ or polypeptides (Crosstide for PKB, S6K, SGK and PRK2; T308tide for PDK1, and Kemptide for PKA). PKA (Sigma) was measured in the presence of 100 μM cAMP. Alternatively, assays were performed in a 96 well format, aliquots spotted on p81 phosphocellulose papers (Whatmann), washed in 0.01% phosphoric acid, dried, and then exposed and analysed using Phospholmager technology (Storm, Molecular Dynamics). Activity measurements were performed in duplicates with less than 10% difference between duplicate pairs. Experiments were repeated at least twice, although most of the experiments were repeated multiple times, with similar results.
(§2) Activity assays for each kinase were performed as described in Materials and Methods in the presence of 1% DMSO (100%). Except PKA, all protein kinases were produced as a GST-fusion. S6K1, PKBα, SGK mutants used were S6K1-T2-[Thr412Glu], PKBa[Ser473Asp] and ΔN-SGK[Ser422Asp].

PRK2 = target: T3, PRK2 (Homo sapiens, UniProt Q16513); assay: AGC kinase panel activity assay (Crosstide); conditions: for PRK2 (%) activity: 1% DMSO = 100%
T3 construct: made in house; host or cells: HEK293
T3 sequence (Q16513 501-984): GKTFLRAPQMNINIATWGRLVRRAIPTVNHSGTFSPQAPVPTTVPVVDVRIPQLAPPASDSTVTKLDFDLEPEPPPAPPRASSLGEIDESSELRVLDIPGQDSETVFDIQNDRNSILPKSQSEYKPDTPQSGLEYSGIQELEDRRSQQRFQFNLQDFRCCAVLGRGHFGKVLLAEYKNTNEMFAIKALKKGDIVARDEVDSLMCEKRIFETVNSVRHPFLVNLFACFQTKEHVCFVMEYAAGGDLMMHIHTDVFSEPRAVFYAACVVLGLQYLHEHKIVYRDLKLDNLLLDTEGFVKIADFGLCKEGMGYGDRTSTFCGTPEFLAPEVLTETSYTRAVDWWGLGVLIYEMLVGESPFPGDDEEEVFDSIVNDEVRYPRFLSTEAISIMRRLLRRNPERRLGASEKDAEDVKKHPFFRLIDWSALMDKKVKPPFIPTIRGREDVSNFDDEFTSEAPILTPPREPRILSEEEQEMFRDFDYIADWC
Experimental: as §1, §2

S6K1-T2-[Thr412Glu] = target: T4, S6K1-T2-[Thr412Glu] (Homo sapiens, UniProt P23443, T412E); assay: AGC kinase panel activity assay (Crosstide); conditions: for S6K1 (%) activity: 1% DMSO = 100%
T4 construct: made in house; host or cells: HEK293
T4 sequence (P23443 1-421 T412E limits assumed): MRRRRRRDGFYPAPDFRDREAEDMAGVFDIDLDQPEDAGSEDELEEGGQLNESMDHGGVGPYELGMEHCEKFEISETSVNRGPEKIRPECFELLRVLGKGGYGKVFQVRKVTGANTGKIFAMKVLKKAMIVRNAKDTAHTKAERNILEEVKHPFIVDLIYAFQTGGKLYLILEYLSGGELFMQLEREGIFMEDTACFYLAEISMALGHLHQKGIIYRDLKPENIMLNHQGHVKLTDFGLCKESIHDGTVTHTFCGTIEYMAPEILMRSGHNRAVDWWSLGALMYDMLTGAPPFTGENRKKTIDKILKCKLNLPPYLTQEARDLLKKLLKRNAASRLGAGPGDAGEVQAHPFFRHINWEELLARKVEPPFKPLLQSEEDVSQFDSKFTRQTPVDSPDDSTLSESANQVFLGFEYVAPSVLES
Experimental: as §1, §2

ΔN-SGK[Ser422Asp] = target: T5, ΔN-SGK[Ser422Asp] (Homo sapiens, UniProt O00141, S422D); assay: AGC kinase panel activity assay (Crosstide); conditions: for SGK1 (%) activity: 1% DMSO = 100%
T5 construct: made in house; host or cells: HEK293
T5 sequence (O00141 61-431 S422D limits assumed): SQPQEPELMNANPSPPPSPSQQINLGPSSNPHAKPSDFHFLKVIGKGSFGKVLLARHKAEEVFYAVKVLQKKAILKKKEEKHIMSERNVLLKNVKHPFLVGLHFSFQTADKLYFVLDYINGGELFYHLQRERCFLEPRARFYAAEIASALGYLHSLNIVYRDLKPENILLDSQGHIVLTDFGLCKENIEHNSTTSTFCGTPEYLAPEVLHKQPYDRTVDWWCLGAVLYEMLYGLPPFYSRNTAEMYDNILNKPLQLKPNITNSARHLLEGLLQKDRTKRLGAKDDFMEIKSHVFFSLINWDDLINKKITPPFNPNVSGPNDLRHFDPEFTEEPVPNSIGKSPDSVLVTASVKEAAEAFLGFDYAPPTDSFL
Experimental: as §1, §2

Compound | AC50 (GST-PDK1 [Ile119Ala]) [µM] | Max. activity (GST-PDK1 [Ile119Ala]) [U/mg] | effect on PKBa/AKT1 activity (in words) (PKBa[Ser473Asp]; 20 μM) | activity at 20 µM (PKBa[Ser473Asp]; 20 μM compound, 1% DMSO = 100%, read-out: PKBα (%) activity) [%] | activity at 200 µM (PKBa[Ser473Asp]; 200 μM compound, 1% DMSO = 100%, read-out: PKBα (%) activity) [%] | effect on PRK2 activity (in words) (PRK2; 20 μM) | PRK2 (%) activity (PRK2; 20 μM compound) [%] | PRK2 (%) activity (PRK2; 200 μM compound) [%] | effect on S6K activity (in words) (S6K1-T2-[Thr412Glu]; 20 μM) | S6K1 (%) activity (S6K1-T2-[Thr412Glu]; 20 μM compound) [%] | S6K1 (%) activity (S6K1-T2-[Thr412Glu]; 200 μM compound) [%] | effect on SGK1 activity (in words) (ΔN-SGK[Ser422Asp]; 20 μM) | SGK1 (%) activity (ΔN-SGK[Ser422Asp]; 20 μM compound) [%] | SGK1 (%) activity (ΔN-SGK[Ser422Asp]; 200 μM compound) [%] | PKBα (%) activity (PKBa[Ser473Asp]; 20 μM compound, 1% DMSO = 100%) [%] | PKBα (%) activity (PKBa[Ser473Asp]; 200 μM compound, 1% DMSO = 100%) [%] | activation of PDK1 mutant (in words) (GST-PDK1 [Ile119Ala]; Ile119 mutant, P-HM-RSK 20 μM)
O=C(O)CSC(CC(=O)c1ccc(Cl)cc1)c1ccccc1 (stereo not shown) [Compound 1] | 90 ± 20 | 2.1 ± 0.23 | no significant effect | 89 | 85 | no significant effect | 103 | 110 | no significant effect | 109 | 110 | no significant effect | 97 | 61 |  |  | 
COC(=O)CSC(CC(=O)c1ccc(Cl)cc1)c1ccccc1 (stereo not shown) [Compound 2] |  |  |  |  |  |  | 106 | 89 |  | 109 | 120 |  | 89 | 92 | 92 | 106 | 
REPRILSEEEQEMFRDFDYIADWC [PIFtide, reference compound] | 0.66 ± 0.14 | 2.58 ± 0.17 |  |  |  |  |  |  |  |  |  |  |  |  |  |  | 
P-HM-RSK: phosphorylated HM polypeptide of RSK: KGAGGGGFRGFS(P)FVA (KGAGGGGFRGF[pS]FVA) |  |  |  |  |  |  |  |  |  |  |  |  |  |  |  |  | completely abolished
